Where a SMILES comes first, the peptide text is derived from it.
Assays:
[1] = molecular target: T1, GST-PTB domain fusion protein (Homo sapiens, UniProt P29353); assay: Direct binding of biotinylated peptides to PTB domain (streptavidin-coupled alkaline phosphatase detection); conditions: 500 nM biotinylated peptide, FIG. 3
T1 construct: 100 ng of GST-PTB domain or GST-SH2 domain fusion protein were incubated; made in house; host or cells: Sf9 cells (recombinant baculovirus)
T1 sequence (P29353 156-339 limits assumed): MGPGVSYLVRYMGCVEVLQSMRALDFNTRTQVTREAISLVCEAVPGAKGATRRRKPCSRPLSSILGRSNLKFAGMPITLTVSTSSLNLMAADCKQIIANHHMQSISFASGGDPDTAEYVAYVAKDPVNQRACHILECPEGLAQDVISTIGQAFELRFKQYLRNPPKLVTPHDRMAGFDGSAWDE
Procedure: (§1) The PTB domain was immunoprecipitated and the washed pellet assayed for the presence of bound peptide with streptavidin-coupled alkaline phosphatase. […] See, Kavanaugh and Williams, supra.
Peptides were biotinylated during synthesis and HPLC purified. 100 ng of GST-PTB domain or GST-SH2 domain fusion protein were incubated in 1×hybridization buffer with 500 nM biotinylated phosphopeptide for 1 hour at 4° C., immunoprecipitated as described in Example 2, above, washed once, and the pellets incubated with 0.25 units of streptavidin-alkaline phosphatase for 5 minutes at 4° C. The pellets were washed twice more, incubated for 3 minutes at room temperature with 1 mg/ml p-nitrophenylphosphate in 100 mM glycine, pH 10.1, 1 mM ZnCl2 and 1 mM MgCl2. The absorbance was measured at 405 nm.

[2] = molecular target: T2, PTB domain/c-erbB2 binding (GST-PTB domain of SHC; c-erbB2 from SKBR3 lysate) (Homo sapiens, UniProt P29353); assay: biochemical
T2 construct: GST-PTB domain fusion proteins were expressed from recombinant baculovirus in sf9 cells; made in house; host or cells: Sf9 cells (recombinant baculovirus) for GST-PTB; c-erbB2 endogenous in SKBR3 cell lysate
T2 sequence (P29353 156-341): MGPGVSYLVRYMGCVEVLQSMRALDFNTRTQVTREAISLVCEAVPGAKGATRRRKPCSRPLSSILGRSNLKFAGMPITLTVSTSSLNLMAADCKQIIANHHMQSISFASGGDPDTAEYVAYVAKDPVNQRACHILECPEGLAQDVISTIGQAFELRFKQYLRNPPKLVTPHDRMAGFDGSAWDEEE

[3] = molecular target: T3, SH2 domain of SHC (GST-SH2 domain fusion protein) (Homo sapiens, UniProt P29353); assay: Direct binding of biotinylated peptides to SH2 domain (streptavidin-coupled alkaline phosphatase detection); conditions: 500 nM biotinylated peptide, FIG. 3
T3 construct: 100 ng of GST-PTB domain or GST-SH2 domain fusion protein were incubated
T3 sequence (P29353 488-579 limits assumed): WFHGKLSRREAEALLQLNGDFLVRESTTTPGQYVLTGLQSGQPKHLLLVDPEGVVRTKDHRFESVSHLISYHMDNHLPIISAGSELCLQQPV

[4] = molecular target: T4, SHC PTB domain / pp145 derived from activated B cells (Homo sapiens, UniProt P29353); assay: Blocking of in vitro association of SHC PTB domain with pp145; assay type: binding
T4 sequence (P29353 156-339 limits assumed): T1 sequence (P29353 156-339 limits assumed)
Source text: as §1

CC(C)C[C@H](NC(=O)[C@H](CC(N)=O)NC(=O)[C@H](CC(=O)O)NC(=O)[C@H](Cc1ccccc1)NC(=O)[C@H](C)NC(=O)[C@@H]1CCCN1C(=O)[C@H](CO)NC(=O)[C@H](Cc1ccccc1)NC(=O)[C@H](C)NC(=O)[C@@H]1CCCN1)C(=O)N[C@@H](Cc1ccc(OP(=O)(O)O)cc1)C(=O)N[C@@H](Cc1ccc(OP(=O)(O)O)cc1)C(=O)N[C@@H](Cc1c[nH]c2ccccc12)C(=O)N[C@@H](CC(=O)O)C(=O)N[C@@H](CCC(N)=O)C(=O)N[C@@H](CC(N)=O)C(=O)N[C@@H](CO)C(=O)N[C@@H](CO)C(=O)N[C@@H](CCC(=O)O)C(=O)N[C@@H](CCC(N)=O)C(=O)NCC(=O)O [PAFSPAFDNL (pY) (pY) WDQNSSEQG, PAFSPAFDNL(pY)(pY)WDQNSSEQG] (HELM PEPTIDE1{P.A.F.S.P.A.F.D.N.L.[O=C([C@H](Cc1ccc(OP(=O)(O)O)cc1)N[*:1])[*:2]].[O=C([C@H](Cc1ccc(OP(=O)(O)O)cc1)N[*:1])[*:2]].W.D.Q.N.S.S.E.Q.G}$$$$V2.0)
direct binding to PTB domain, in words [1]: able to bind directly
IC50 ([2]; Apparent Inhibition (IC50)): 50 nM
block of PTB/c-erbB2 interaction at one peptide concentration, in words ([2]; FIG. 2C, 300 nM peptides (legend says 500 nM)): completely block
IC50 ([2]; approximate IC50, inhibition of PTB domain/c-erbB2 binding): ~50 nM
ability to block the PTB domain/c-erbB2 interaction after dephosphorylation ([2]; peptide dephosphorylated with tyrosine-specific phosphatases): unable to block
peptide concentration at which substantial inhibition is shown ([2]; varying peptide concentrations, FIG. 2B lower blot): 50 nM
binding to SH2 domain, in words [3]: inability of the SH2 domain of SHC to bind
blocking of association of SHC PTB domain with pp145 [4]: blocks association
